Experiment [1] concerns the target T1, Kappa-type opioid receptor (Homo sapiens, UniProt P41145). The experiment in a line: biochemical. Type of experiment: cell-based, CHO.
Description: Displacement of [3H]U-69593 from human opioid kappa receptor expressed in CHO cells
Experiment [2] has as its target Delta-type opioid receptor (Homo sapiens, UniProt P41143). The experiment in a line: biochemical. Type of experiment: cell-based, CHO.
Description: Displacement of [3H]naltrindole from human opioid delta receptor expressed in CHO cells
Experiment [3] addresses T1, Kappa-type opioid receptor. Type of experiment: functional, cell-based, CHO.
Description: Agonist activity at human opioid kappa receptor expressed in CHO cells assessed as stimulation of [35S]GTPgammaS binding
Experiment [4] concerns the target T2, Mu-type opioid receptor (Homo sapiens, UniProt P35372).
Description: Agonist activity at human opioid gamma receptor expressed in CHO cells assessed as stimulation of [35S]GTP-gamma-S binding
The target in experiment [5] is T2, Mu-type opioid receptor. This is another data set of the same source.
Description: Agonist activity at human opioid gamma receptor expressed in CHO cells assessed as inhibition of DAGO-stimulated [35S]GTPgammaS binding
The target of experiment [6] is T2, Mu-type opioid receptor. As to the kind of experiment: biochemical.
Description: Displacement of [3H]DAMGO from human opioid gamma receptor expressed in CHO cells
For experiment [7], the target named is T1, Kappa-type opioid receptor.
Description: Antagonist activity at human opioid kappa receptor expressed in CHO cells assessed as inhibition of U-50488-stimulated [35S]GTP-gamma-S binding

Sequence of Delta-type opioid receptor (P41143 whole entry): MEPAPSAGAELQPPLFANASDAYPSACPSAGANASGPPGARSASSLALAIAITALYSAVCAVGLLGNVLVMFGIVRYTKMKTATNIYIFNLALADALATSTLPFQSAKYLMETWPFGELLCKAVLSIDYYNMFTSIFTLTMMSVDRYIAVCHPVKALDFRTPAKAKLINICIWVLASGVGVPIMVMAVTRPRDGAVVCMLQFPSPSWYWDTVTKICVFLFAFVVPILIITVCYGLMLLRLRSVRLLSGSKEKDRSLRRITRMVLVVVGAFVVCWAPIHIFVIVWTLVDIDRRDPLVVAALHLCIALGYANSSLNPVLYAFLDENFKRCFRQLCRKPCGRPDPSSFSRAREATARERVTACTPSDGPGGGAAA
T2 sequence (P35372 whole entry): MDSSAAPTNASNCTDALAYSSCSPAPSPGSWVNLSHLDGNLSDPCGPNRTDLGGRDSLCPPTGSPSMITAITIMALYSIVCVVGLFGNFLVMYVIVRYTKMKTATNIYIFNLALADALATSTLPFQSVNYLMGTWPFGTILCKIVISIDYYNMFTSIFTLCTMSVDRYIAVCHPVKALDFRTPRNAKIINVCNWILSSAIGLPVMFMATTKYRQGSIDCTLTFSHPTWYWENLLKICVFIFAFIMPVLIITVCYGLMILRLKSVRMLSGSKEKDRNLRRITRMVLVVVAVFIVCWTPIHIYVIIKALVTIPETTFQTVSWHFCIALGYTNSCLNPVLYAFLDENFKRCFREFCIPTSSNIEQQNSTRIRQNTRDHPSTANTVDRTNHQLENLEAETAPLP
T1 sequence (P41145 whole entry): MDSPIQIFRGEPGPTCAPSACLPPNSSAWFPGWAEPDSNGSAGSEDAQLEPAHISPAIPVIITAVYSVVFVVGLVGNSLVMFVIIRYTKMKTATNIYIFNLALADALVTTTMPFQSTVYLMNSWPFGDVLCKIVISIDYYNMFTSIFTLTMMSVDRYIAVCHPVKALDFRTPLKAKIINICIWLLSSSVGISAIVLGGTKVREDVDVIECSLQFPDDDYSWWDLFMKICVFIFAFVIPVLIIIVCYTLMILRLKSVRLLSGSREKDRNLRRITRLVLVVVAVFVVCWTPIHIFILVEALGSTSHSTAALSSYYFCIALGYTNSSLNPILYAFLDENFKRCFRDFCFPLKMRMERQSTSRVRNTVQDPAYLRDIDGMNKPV

For the compound `C=CCN1CC[C@]23c4c5ccc(OC(=O)CCCCCCCCC(=O)Oc6ccc7c(c6)[C@@]68CCCCC6[C@@H](C7)N(CC6CCC6)CC8)c4O[C@H]2C(=O)CC[C@@]3(O)[C@H]1C5` (some centres undefined), the Ki is 0.13 nM in experiment [1], 39 nM in experiment [2] and 0.43 nM in experiment [6]. Moreover, the EC50 in experiment [3] is 1.6 nM; in experiment [4], 2 nM. In experiment [5], this compound gave an IC50 of 25 nM.
In the case of `O=C(CCCCCCCCC(=O)Oc1ccc2c3c1O[C@H]1C(=O)CC[C@@]4(O)[C@@H](C2)N(CC2CC2)CC[C@]314)Oc1ccc2c(c1)[C@@]13CCCCC1[C@@H](C2)N(CC1CCC1)CC3` (some centres undefined), the figures for the Ki in experiment [1], in experiment [2] and in experiment [6] were 0.12 nM, 15 nM and 0.29 nM, respectively. Also, the results for the EC50 in experiment [3] and in experiment [4] were 3.4 nM and 4.4 nM, respectively. The same compound displayed an IC50 in experiment [5] of 160 nM.
`O=C(CCCCCCCCC(=O)Oc1ccc2c3c1O[C@H]1[C@H](O)CC[C@@]4(O)[C@@H](C2)N(CC2CCC2)CC[C@]314)Oc1ccc2c(c1)[C@@]13CCCCC1[C@@H](C2)N(CC1CCC1)CC3` (some centres undefined): the values for the Ki in experiment [1], in experiment [2] and in experiment [6] were 0.34 nM, 28 nM and 0.46 nM, respectively. This compound came in with an EC50 in experiment [3] of 3.2 nM. Further, the IC50 in experiment [7] worked out at 600 nM; in experiment [5], 18 nM.
Regarding `O=C(O)CCCCCCCCC(=O)Oc1ccc2c(c1)[C@@]13CCCCC1[C@@H](C2)N(CC1CCC1)CC3` (some centres undefined), in experiment [3], it took 28 nM to reach a half-maximal effect (EC50). That is a double-digit nanomolar value.

Usually Ki stands for a measure of affinity in units of concentration, obtained from inhibition or displacement. For orientation: EC50 means the concentration giving half of the maximal effect. Read a low EC50 as a more potent agent. For orientation: IC50 means the concentration that gives 50% inhibition. The low end stands for higher potency, the high end for lower potency.

The record behind these values is ChEMBL document CHEMBL1147138 (J Med Chem, 2007).
